One molecule from PMC5218480 (PLoS ONE, 2017) can be followed below.

This assay concerns MV-4-11 cells. In words: Gene expression microarray analysis (Affymetrix PrimeView) and GSEA. The class given is cell-based, human. On the set-up: RFU PODN (11730768_x_at) / Fold change /veh PODN (11730768_x_at) / RFU LINC00158 (11744669_a_at) / Fold change /veh LINC00158 (11744669_a_at) / RFU DUSP10 (11751237_a_at) / Fold change /veh DUSP10 (11751237_a_at) / RFU ID3 (11757404_x_at) / Fold change /veh ID3 (11757404_x_at) / RFU PLEKHG5 (11737974_s_at) / Fold change /veh PLEKHG5 (11737974_s_at) / RFU LRRC4B (11730491_at) / Fold change /veh LRRC4B (11730491_at) / RFU GIMAP4 (11747438_a_at) / Fold change /veh GIMAP4 (11747438_a_at) / RFU KRT8 (11758183_x_at) / Fold change /veh KRT8 (11758183_x_at) / RFU CNN1 (11734310_a_at) / Fold change /veh CNN1 (11734310_a_at) / RFU VPS37D (11726825_at) / Fold change /veh VPS37D (11726825_at) / RFU C10orf10 (11716522_x_at) / Fold change /veh C10orf10 (11716522_x_at) / RFU KIR2DL2 /// KIR2DL4 /// KIR2DL5A /// KIR2DL5B /// KIR2DS1 /// KIR2DS2 /// KIR2DS3 /// KIR2DS4 /// KIR3DL3 /// KIR3DL3 /// KIR3DS1 (11738374_at) / Fold change /veh KIR2DL2 /// KIR2DL4 /// KIR2DL5A /// KIR2DL5B /// KIR2DS1 /// KIR2DS2 /// KIR2DS3 /// KIR2DS4 /// KIR3DL3 /// KIR3DL3 /// KIR3DS1 (11738374_at) / RFU C1QL1 (11718748_at) / Fold change /veh C1QL1 (11718748_at) / RFU TMPRSS4 (11747572_a_at) / Fold change /veh TMPRSS4 (11747572_a_at) / RFU HAMP (11756126_x_at) / Fold change /veh HAMP (11756126_x_at) / RFU RNFT2 (11725882_a_at) / Fold change /veh RNFT2 (11725882_a_at) / RFU NR4A2 (11747474_a_at) / Fold change /veh NR4A2 (11747474_a_at) / RFU ABCC12 (11746883_a_at) / Fold change /veh ABCC12 (11746883_a_at) / RFU TMEM136 (11760407_x_at) / Fold change /veh TMEM136 (11760407_x_at) / RFU CLDN22 /// WWC2 (11732394_at) / Fold change /veh CLDN22 /// WWC2 (11732394_at) / RFU HLA-DPB1 (11760878_x_at) / Fold change /veh HLA-DPB1 (11760878_x_at) / RFU SPINT1 (11716480_a_at) / Fold change /veh SPINT1 (11716480_a_at) / RFU GAP43 (11754022_s_at) / Fold change /veh GAP43 (11754022_s_at) / RFU A4GNT (11735810_at) / Fold change /veh A4GNT (11735810_at) / RFU PRB3 (11715151_x_at) / Fold change /veh PRB3 (11715151_x_at) / RFU TUBB4B (11761932_at) / Fold change /veh TUBB4B (11761932_at) / RFU CAPN14 (11732068_a_at) / Fold change /veh CAPN14 (11732068_a_at) / RFU TMCC2 (11721928_a_at) / Fold change /veh TMCC2 (11721928_a_at) / RFU IRGQ (11745062_a_at) / Fold change /veh IRGQ (11745062_a_at) / RFU FAM174B (11720279_a_at) / Fold change /veh FAM174B (11720279_a_at) / RFU TMPRSS4 (11748680_a_at) / Fold change /veh TMPRSS4 (11748680_a_at) / RFU FAM212B (11763350_a_at) / Fold change /veh FAM212B (11763350_a_at) / RFU PLEKHG5 (11743358_a_at) / Fold change /veh PLEKHG5 (11743358_a_at) / RFU ZSCAN30 (11745921_a_at) / Fold change /veh ZSCAN30 (11745921_a_at) / RFU CMKLR1 (11741424_a_at) / Fold change /veh CMKLR1 (11741424_a_at) / RFU LOC101060620 /// MAPK8IP1 (11723275_at) / Fold change /veh LOC101060620 /// MAPK8IP1 (11723275_at) / RFU SPTSSB (11747773_x_at) / Fold change /veh SPTSSB (11747773_x_at) / RFU PRSS12 (11739890_at) / Fold change /veh PRSS12 (11739890_at) / RFU BIN1 (11741810_x_at) / Fold change /veh BIN1 (11741810_x_at) / RFU WNT11 (11732464_a_at) / Fold change /veh WNT11 (11732464_a_at) / RFU C10orf10 (11716521_a_at) / Fold change /veh C10orf10 (11716521_a_at) / RFU C5orf56 (11738089_at) / Fold change /veh C5orf56 (11738089_at) / RFU CYB561 (11721691_x_at) / Fold change /veh CYB561 (11721691_x_at) / RFU ANKRD19P (11752326_a_at) / Fold change /veh ANKRD19P (11752326_a_at) / RFU OR2T12 /// OR2T33 /// OR2T8 (11738714_s_at) / Fold change /veh OR2T12 /// OR2T33 /// OR2T8 (11738714_s_at) / RFU VCAN (11748164_a_at) / Fold change /veh VCAN (11748164_a_at) / RFU JSRP1 (11732532_at) / Fold change /veh JSRP1 (11732532_at) / RFU KRTAP10-11 (11738290_x_at) / Fold change /veh KRTAP10-11 (11738290_x_at) / RFU MYO3A (11730013_a_at) / Fold change /veh MYO3A (11730013_a_at) / RFU EBF3 (11725865_a_at) / Fold change /veh EBF3 (11725865_a_at) / RFU CAMK2N1 (11719241_x_at) / Fold change /veh CAMK2N1 (11719241_x_at) / RFU C5orf56 (11738088_a_at) / Fold change /veh C5orf56 (11738088_a_at) / RFU OLFML3 (11715873_a_at) / Fold change /veh OLFML3 (11715873_a_at) / RFU LOC100653217 /// NTM (11731650_a_at) / Fold change /veh LOC100653217 /// NTM (11731650_a_at) / RFU MAPK11 (11762145_a_at) / Fold change /veh MAPK11 (11762145_a_at) / RFU FIZ1 (11724087_x_at) / Fold change /veh FIZ1 (11724087_x_at) / RFU OASL (11726364_x_at) / Fold change /veh OASL (11726364_x_at) / RFU SOX15 (11748057_x_at) / Fold change /veh SOX15 (11748057_x_at) / RFU CD79A (11719716_a_at) / Fold change /veh CD79A (11719716_a_at) / RFU HIST1H1D (11736915_at) / Fold change /veh HIST1H1D (11736915_at) / RFU CASKIN2 (11723855_a_at) / Fold change /veh CASKIN2 (11723855_a_at) / RFU LOC730098 (11760151_x_at) / Fold change /veh LOC730098 (11760151_x_at) / RFU OR4N2 (11742367_at) / Fold change /veh OR4N2 (11742367_at) / RFU PRRT2 (11749266_a_at) / Fold change /veh PRRT2 (11749266_a_at) / RFU SNX32 (11753110_a_at) / Fold change /veh SNX32 (11753110_a_at) / RFU CDHR5 (11726645_a_at) / Fold change /veh CDHR5 (11726645_a_at) / RFU RCAN1 (11760418_a_at) / Fold change /veh RCAN1 (11760418_a_at) / RFU FAM167A (11723789_a_at) / Fold change /veh FAM167A (11723789_a_at) / RFU FAM26E (11764081_at) / Fold change /veh FAM26E (11764081_at) / RFU ISYNA1 (11749810_s_at) / Fold change /veh ISYNA1 (11749810_s_at) / RFU ACY1 (11761880_at) / Fold change /veh ACY1 (11761880_at) / RFU 11764098_at / Fold change /veh 11764098_at / RFU SAMD14 (11745864_x_at) / Fold change /veh SAMD14 (11745864_x_at) / RFU NPB (11741838_a_at) / Fold change /veh NPB (11741838_a_at) / RFU TMPRSS6 (11731388_a_at) / Fold change /veh TMPRSS6 (11731388_a_at) / RFU KRTAP10-2 (11738614_at) / Fold change /veh KRTAP10-2 (11738614_at) / RFU ARHGAP8 /// PRR5-ARHGAP8 (11727945_x_at) / Fold change /veh ARHGAP8 /// PRR5-ARHGAP8 (11727945_x_at) / RFU KRTAP5-7 /// NADSYN1 (11734609_at) / Fold change /veh KRTAP5-7 /// NADSYN1 (11734609_at) / RFU RASL12 (11751679_a_at) / Fold change /veh RASL12 (11751679_a_at) / RFU CDKN2B (11736163_a_at) / Fold change /veh CDKN2B (11736163_a_at) / RFU PRF1 (11729649_at) / Fold change /veh PRF1 (11729649_at) / RFU, ZNF638 /// ZNF638-IT1 / Fold change vs veh, ZNF638 /// ZNF638-IT1 / RFU, PANK3 / Fold change vs veh, PANK3 / RFU, SH3YL1 / Fold change vs veh, SH3YL1 / RFU, ZEB2 / Fold change vs veh, ZEB2 / RFU, NRIP1 / Fold change vs veh, NRIP1 / RFU, PTTG1IP / Fold change vs veh, PTTG1IP / RFU, CAPN2 / Fold change vs veh, CAPN2 / RFU, MED14 / Fold change vs veh, MED14 / RFU, SNORA58 / Fold change vs veh, SNORA58 / RFU, C1orf63 / Fold change vs veh, C1orf63 / RFU, LRRFIP1 / Fold change vs veh, LRRFIP1 / RFU, NDUFAF7 / Fold change vs veh, NDUFAF7 / RFU, SLC12A2 / Fold change vs veh, SLC12A2 / RFU, IBTK / Fold change vs veh, IBTK / RFU, ESF1 / Fold change vs veh, ESF1 / Fold change vs veh, TMEM50B / RFU, TAOK1 / Fold change vs veh, TAOK1 / RFU, ACBD3 / Fold change vs veh, ACBD3 / RFU, TMA16 / Fold change vs veh, TMA16 / RFU, RWDD3 / Fold change vs veh, RWDD3 / RFU, BCAT1 / Fold change vs veh, BCAT1 / RFU, EDEM3 / Fold change vs veh, EDEM3 / RFU, TMEM33 / Fold change vs veh, TMEM33 / RFU, WDR75 / Fold change vs veh, WDR75 / RFU, AHCTF1 / Fold change vs veh, AHCTF1 / RFU, TFRC / Fold change vs veh, TFRC / RFU, ZDHHC17 / Fold change vs veh, ZDHHC17 / RFU, NOM1 / Fold change vs veh, NOM1 / RFU, ARL8B / Fold change vs veh, ARL8B / RFU, ZBTB11 / Fold change vs veh, ZBTB11 / RFU, TAMM41 / Fold change vs veh, TAMM41 / RFU, KIAA1704 /// LOC100996395 / Fold change vs veh, KIAA1704 /// LOC100996395 / RFU, ING1 / Fold change vs veh, ING1 / RFU, TRMT61B / Fold change vs veh, TRMT61B / RFU, FUBP3 / Fold change vs veh, FUBP3 / RFU, TP53 / Fold change vs veh, TP53 / RFU, TNKS2 / Fold change vs veh, TNKS2 / RFU, ZFP14 / Fold change vs veh, ZFP14 / RFU, ACTR2 / Fold change vs veh, ACTR2 / RFU, PPP3R1 / Fold change vs veh, PPP3R1 / RFU, PIK3R1 / Fold change vs veh, PIK3R1 / RFU, HNRNPA1 / Fold change vs veh, HNRNPA1 / RFU, RNF170 / Fold change vs veh, RNF170 / RFU, ZNF28 / Fold change vs veh, ZNF28 / RFU, RNGTT / Fold change vs veh, RNGTT / RFU, OGT / Fold change vs veh, OGT / RFU, BRD1 / Fold change vs veh, BRD1 / RFU, MARS / Fold change vs veh, MARS / RFU, ZNF655 / Fold change vs veh, ZNF655 / RFU, FAHD1 / Fold change vs veh, FAHD1 / RFU, BDP1 / Fold change vs veh, BDP1 / RFU, LRRCC1 / Fold change vs veh, LRRCC1 / RFU, ARID1A / Fold change vs veh, ARID1A / RFU, ZNF146 / Fold change vs veh, ZNF146 / RFU, ZNF330 / Fold change vs veh, ZNF330 / RFU, GPN3 / Fold change vs veh, GPN3 / RFU, C9orf123 / Fold change vs veh, C9orf123 / RFU, N4BP2L2 / Fold change vs veh, N4BP2L2 / RFU, ARFIP1 / Fold change vs veh, ARFIP1 / RFU, FAM179B / Fold change vs veh, FAM179B / RFU, BCL10 / Fold change vs veh, BCL10 / RFU, UHRF1BP1L / Fold change vs veh, UHRF1BP1L / RFU, BET1 / Fold change vs veh, BET1 / RFU, CNOT2 / Fold change vs veh, CNOT2 / RFU, ZNF268 / Fold change vs veh, ZNF268 / Fold change vs veh, ZNF507 / RFU, DGCR2 / Fold change vs veh, DGCR2 / RFU, WDSUB1 / Fold change vs veh, WDSUB1 / Fold change vs veh, HSP90B1 /// MIR3652 / RFU, ADSS / Fold change vs veh, ADSS / RFU, GK / Fold change vs veh, GK / RFU, ZNF148 / Fold change vs veh, ZNF148 / RFU, TAF9 / Fold change vs veh, TAF9 / RFU, SLC1A5 / Fold change vs veh, SLC1A5 / RFU, SLMO2 / Fold change vs veh, SLMO2 / RFU, ABCC4 / Fold change vs veh, ABCC4 / RFU, LOC101060439 /// RAP1B / Fold change vs veh, LOC101060439 /// RAP1B / RFU, RFX7 / Fold change vs veh, RFX7 / RFU, GTPBP10 / Fold change vs veh, GTPBP10 / RFU, CNEP1R1 / Fold change vs veh, CNEP1R1 / RFU, BIVM-ERCC5 /// ERCC5 / Fold change vs veh, BIVM-ERCC5 /// ERCC5 / RFU, ILF3 / Fold change vs veh, ILF3 / RFU 11762660_at / Fold change /veh 11762660_at / RFU VCAN (11757783_s_at) / Fold change /veh VCAN (11757783_s_at) / RFU DDX43 (11728927_at) / Fold change /veh DDX43 (11728927_at) / RFU KRT8 (11758188_x_at) / Fold change /veh KRT8 (11758188_x_at) / RFU NKD1 (11759106_at) / Fold change /veh NKD1 (11759106_at) / RFU SRD5A1 (11742802_a_at) / Fold change /veh SRD5A1 (11742802_a_at) / RFU TPSAB1 /// TPSB2 (11721975_s_at) / Fold change /veh TPSAB1 /// TPSB2 (11721975_s_at) / RFU GSTM3 (11746129_a_at) / Fold change /veh GSTM3 (11746129_a_at) / RFU IL23R (11737362_x_at) / Fold change /veh IL23R (11737362_x_at) / RFU TMEM51 (11727254_a_at) / Fold change /veh TMEM51 (11727254_a_at) / RFU PIWIL2 (11732686_x_at) / Fold change /veh PIWIL2 (11732686_x_at) / RFU ORM1 (11744905_x_at) / Fold change /veh ORM1 (11744905_x_at) / RFU CCDC152 (11743942_at) / Fold change /veh CCDC152 (11743942_at) / RFU ECM1 (11717891_a_at) / Fold change /veh ECM1 (11717891_a_at) / RFU IL23R (11748794_a_at) / Fold change /veh IL23R (11748794_a_at) / RFU TNFAIP8L3 (11732012_x_at) / Fold change /veh TNFAIP8L3 (11732012_x_at) / RFU MBOAT4 (11741988_at) / Fold change /veh MBOAT4 (11741988_at) / RFU 11764193_at / Fold change /veh 11764193_at / RFU TMEM53 (11763286_at) / Fold change /veh TMEM53 (11763286_at) / RFU MAGEB2 (11727129_at) / Fold change /veh MAGEB2 (11727129_at) / RFU TMEM200A (11744735_a_at) / Fold change /veh TMEM200A (11744735_a_at) / RFU CCDC152 (11751479_a_at) / Fold change /veh CCDC152 (11751479_a_at) / RFU FAM211A (11726209_a_at) / Fold change /veh FAM211A (11726209_a_at) / RFU RGS16 (11746705_a_at) / Fold change /veh RGS16 (11746705_a_at) / RFU VCAN (11755009_s_at) / Fold change /veh VCAN (11755009_s_at) / RFU RHOB (11743442_s_at) / Fold change /veh RHOB (11743442_s_at) / RFU RGS16 (11720943_a_at) / Fold change /veh RGS16 (11720943_a_at) / RFU RGS16 (11720944_at) / Fold change /veh RGS16 (11720944_at) / RFU, VPS4B / Fold change vs veh, VPS4B / RFU, CREB1 / Fold change vs veh, CREB1 / RFU, DNAJC13 / Fold change vs veh, DNAJC13 / RFU, GNAQ / Fold change vs veh, GNAQ / RFU, CDK5R1 / Fold change vs veh, CDK5R1 / RFU, ZRANB3 / Fold change vs veh, ZRANB3 / RFU, CUL4A / Fold change vs veh, CUL4A / RFU, CCNY / Fold change vs veh, CCNY / RFU, UFL1 / Fold change vs veh, UFL1 / RFU, COG3 / Fold change vs veh, COG3 / RFU, DIAPH2 / Fold change vs veh, DIAPH2 / RFU, SKA2 / Fold change vs veh, SKA2 / RFU, AFF3 / Fold change vs veh, AFF3 / RFU, LMF1 / Fold change vs veh, LMF1 / RFU, IPO11 / Fold change vs veh, IPO11 / RFU, DFFB / Fold change vs veh, DFFB / RFU, FOXP1 / Fold change vs veh, FOXP1 / RFU, CARD8 / Fold change vs veh, CARD8 / RFU, STRN3 / Fold change vs veh, STRN3 / RFU, ADK / Fold change vs veh, ADK / RFU, RASSF2 / Fold change vs veh, RASSF2 / RFU, WIPF1 / Fold change vs veh, WIPF1 / RFU, LARP1B / Fold change vs veh, LARP1B / RFU, RASA1 / Fold change vs veh, RASA1 / RFU, RB1 / Fold change vs veh, RB1 / RFU, PPFIA1 / Fold change vs veh, PPFIA1 / RFU, MAT2A / Fold change vs veh, MAT2A / RFU, CCT5 / Fold change vs veh, CCT5 / RFU, WDR92 / Fold change vs veh, WDR92 / RFU, CUX1 / Fold change vs veh, CUX1 / RFU, TTC7A / Fold change vs veh, TTC7A / RFU, TMEM135 / Fold change vs veh, TMEM135 / RFU, DEPTOR / Fold change vs veh, DEPTOR / RFU, CPM / Fold change vs veh, CPM / RFU, DNAJB6 / Fold change vs veh, DNAJB6 / RFU, CACNA2D3 / Fold change vs veh, CACNA2D3 / RFU, DTX4 / Fold change vs veh, DTX4 / RFU, TFCP2 / Fold change vs veh, TFCP2 / RFU, GMCL1 /// GMCL1P1 / Fold change vs veh, GMCL1 /// GMCL1P1 / RFU, AEBP2 / Fold change vs veh, AEBP2 / RFU, SNHG1 /// SNORD22 /// SNORD25 /// SNORD26 /// SNORD27 /// SNORD28 /// SNORD29 /// SNORD31 / Fold change vs veh, SNHG1 /// SNORD22 /// SNORD25 /// SNORD26 /// SNORD27 /// SNORD28 /// SNORD29 /// SNORD31 / Fold change (Aza/veh), C12orf56 (ProbeSet 11735607_a_at) / Fold change (ACY-1035/veh), C12orf56 (ProbeSet 11735607_a_at) / Fold change (Aza/veh), FGFR1OP (ProbeSet 11751329_s_at) / Fold change (ACY-1035/veh), FGFR1OP (ProbeSet 11751329_s_at) / Fold change (Aza/veh), VPS36 (ProbeSet 11739960_a_at) / Fold change (ACY-1035/veh), VPS36 (ProbeSet 11739960_a_at) / RFU SYPL1 (11715823_x_at) / Fold change /veh SYPL1 (11715823_x_at) / RFU IGFBP7 (11715501_s_at) / Fold change /veh IGFBP7 (11715501_s_at) / RFU REEP3 (11722064_at) / Fold change /veh REEP3 (11722064_at) / RFU IGLL1 (11728026_x_at) / Fold change /veh IGLL1 (11728026_x_at): dose or concentration left out as unconfirmed. As to conditions: ProbeSet 11733176_x_at; LIST B.

As for `Nc1ncn([C@@H]2O[C@H](CO)[C@@H](O)[C@H]2O)c(=O)n1` [azacitidine], the “Fold change vs veh, ZNF507” value was 0.97.
